From patent US20250074920A1, “MACROCYCLIC COMPOUNDS AND USE AS KINASE INHIBITORS” (BLOSSOMHILL THERAPEUTICS, INC., priority 2022, published 2025)

Experiments:
Assay in all cases: KINOMEscan kinase binding assay
[1] = test system: EGFR(L747-S752del, P753S); settings: at 1 μM
Summary of the method: (§1)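 KINOMEscan competition assay. T7-phage kinase fusions (E. coli lysates) or DNA-tagged HEK-293 kinases; immobilized biotinylated ligand on beads; 1 h RT incubation; qPCR detection of bound kinase. Output: % Ctrl or Kd.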

ABL1-phosphorylated = settings: at 1 μM
Summary of the method: as §1

TRKC = settings: at 1 μM
Summary of the method: as §1

DDR2 = settings: at 1 μM
Summary of the method: as §1

[2] = test system: ABL1(F317I)-nonphosphorylated; settings: at 1 μM
Summary of the method: as §1

MET = settings: at 1 μM
Summary of the method: as §1

[3] = test system: TYK2(JH2domain-pseudokinase); settings: for % Ctrl: TYK2(JH2domain-pseudokinase), at 1 μM; for Kd: read-out: TYK2(JH2 domain-pseudokinase) Kd
Summary of the method: (§2)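 Dissociation constants came from the amount of kinase captured on the solid support across a test compound concentration series. Captured kinase, T7 phage-fused or HEK-293-made and DNA-tagged, was read by qPCR after a 1 h room-temperature binding step.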

ALK(C1156Y) = settings: at 1 μM
Summary of the method: as §1

EPHB4 = settings: at 1 μM
Summary of the method: as §1

ALK = settings: at 1 μM
Summary of the method: as §1

FLT3(D835V) = settings: at 1 μM
Summary of the method: as §1

RET(M918T) = settings: at 1 μM
Summary of the method: as §1

EGFR(L858R) = settings: at 1 μM
Summary of the method: (§3)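 Competition binding format: a test compound at a single concentration displaces phage-tagged or DNA-tagged kinase from an immobilized affinity ligand. After washing, kinase is released with 0.5 μM free ligand (30 min, room temperature) and measured by qPCR. Data are given as % Ctrl.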

EPHA2 = settings: at 1 μM
Summary of the method: as §3

BMX = settings: at 1 μM
Summary of the method: as §1

KIT(V559D, T670I) = settings: at 1 μM
Summary of the method: as §1

[4] = test system: JAK2(JH1domain-catalytic); settings: for % Ctrl: JAK2(JH1domain-catalytic), at 1 μM; for Kd: read-out: JAK2(JH1 domain-catalytic) Kd
Summary of the method: as §2

LTK = settings: at 1 μM
Summary of the method: as §1

FLT3(K663Q) = settings: at 1 μM
Summary of the method: as §1

EPHB3 = settings: at 1 μM
Summary of the method: as §1

KIT(L576P) = settings: at 1 μM
Summary of the method: as §1

EPHA4 = settings: at 1 μM
Summary of the method: as §3

MUSK = settings: at 1 μM
Summary of the method: as §1

[5] = test system: EGFR(L747-E749del, A750P); settings: at 1 μM
Summary of the method: as §1

BRK = settings: at 1 μM
Summary of the method: as §1

ALK(L1196M) = settings: at 1 μM
Summary of the method: as §1

MET(M1250T) = settings: at 1 μM
Summary of the method: as §1

FLT3 = settings: at 1 μM
Summary of the method: as §1

AXL = settings: at 1 μM
Summary of the method: as §1

HCK = settings: at 1 μM
Summary of the method: as §1

EGFR(L858R, T790M) = settings: at 1 μM
Summary of the method: as §3

FER = settings: at 1 μM
Summary of the method: as §1

EPHB6 = settings: at 1 μM
Summary of the method: as §1

ITK = settings: at 1 μM
Summary of the method: as §1

[6] = test system: JAK1(JH2domain-pseudokinase); settings: for % Ctrl: JAK1(JH2domain-pseudokinase), at 1 μM; for Kd: read-out: JAK1(JH2 domain-pseudokinase) Kd
Summary of the method: as §1

KIT = settings: at 1 μM
Summary of the method: as §1

CTK = settings: at 1 μM
Summary of the method: as §1

EPHA6 = settings: at 1 μM
Summary of the method: as §3

[7] = test system: ABL1(H396P)-nonphosphorylated; settings: at 1 μM
Summary of the method: as §1

SMILES: Cc1cc2c([nH]1)/C=C1\C(=O)Nc3ccc(cc31)-c1c(nn(C)c1C)OCCCN(C)C2=O [Cpd. 1, [3a(4)Z]-6,9,15,16-tetramethyl-9,10,11,12-tetrahydro-15H-1,17-(ethanediylidene)pyrazolo[4,3-n]dipyrrolo[3,2-g:3′,4′-j][1,5]oxazacyclopentadecine-3,8(2H,5H)-dione]
- % Ctrl [1]: 100%
- % Ctrl (ABL1-phosphorylated): 81%
- % Ctrl (TRKC): 94%
- % Ctrl (DDR2): 95%
- % Ctrl [2]: 91%
- % Ctrl (MET): 84%
- % Ctrl [3]: 1.5%
- Kd [3]: 0.22 µM
- % Ctrl (ALK(C1156Y)): 100%
- % Ctrl (EPHB4): 86%
- % Ctrl (ALK): 87%
- % Ctrl (FLT3(D835V)): 61%
- % Ctrl (RET(M918T)): 84%
- % Ctrl (EGFR(L858R)): 100%
- % Ctrl (EPHA2): 97%
- % Ctrl (BMX): 67%
- % Ctrl (KIT(V559D, T670I)): 93%
- % Ctrl [4]: 98%
- Kd [4]: > 10 µM
- % Ctrl (LTK): 74%
- % Ctrl (FLT3(K663Q)): 80%
- % Ctrl (EPHB3): 99%
- % Ctrl (KIT(L576P)): 88%
- % Ctrl (EPHA4): 96%
- % Ctrl (MUSK): 93%
- % Ctrl [5]: 100%
- % Ctrl (BRK): 92%
- % Ctrl (ALK(L1196M)): 89%
- % Ctrl (MET(M1250T)): 83%
- % Ctrl (FLT3): 92%
- % Ctrl (AXL): 85%
- % Ctrl (HCK): 93%
- % Ctrl (EGFR(L858R, T790M)): 89%
- % Ctrl (FER): 97%
- % Ctrl (EPHB6): 100%
- % Ctrl (ITK): 89%
- % Ctrl [6]: 100%
- % Ctrl (KIT): 91%
- % Ctrl (CTK): 58%
- % Ctrl (EPHA6): 94%
- % Ctrl [7]: 87%

SMILES: Cc1cc2c([nH]1)/C=C1\C(=O)Nc3ccc(cc31)-c1c(nn(C)c1C)COCCN(C)C2=O [Cpd. 2, [3a(4)Z]-6,9,15,16-tetramethyl-10,11,13,15-tetrahydro-2H-1,17-(ethanediylidene)pyrazolo[4,3-m]dipyrrolo[3,2-f:3′,4′-i][1,4]oxazacyclopentadecine-3,8(5H,9H)-dione]
- % Ctrl [1]: 100%
- % Ctrl (ABL1-phosphorylated): 50%
- % Ctrl (TRKC): 22%
- % Ctrl (DDR2): 100%
- % Ctrl [2]: 100%
- % Ctrl (MET): 95%
- % Ctrl [3]: 0.6%
- Kd [3]: 0.0012 µM
- % Ctrl (ALK(C1156Y)): 93%
- % Ctrl (EPHB4): 100%
- % Ctrl (ALK): 100%
- % Ctrl (FLT3(D835V)): 7.9%
- % Ctrl (RET(M918T)): 92%
- % Ctrl (EGFR(L858R)): 78%
- % Ctrl (EPHA2): 85%
- % Ctrl (BMX): 95%
- % Ctrl (KIT(V559D, T670I)): 82%
- % Ctrl [4]: 91%
- Kd [4]: 2.3 µM
- % Ctrl (LTK): 100%
- % Ctrl (FLT3(K663Q)): 47%
- % Ctrl (EPHB3): 100%
- % Ctrl (KIT(L576P)): 100%
- % Ctrl (EPHA4): 100%
- % Ctrl (MUSK): 100%
- % Ctrl [5]: 85%
- % Ctrl (BRK): 100%
- % Ctrl (ALK(L1196M)): 94%
- % Ctrl (MET(M1250T)): 98%
- % Ctrl (FLT3): 67%
- % Ctrl (AXL): 43%
- % Ctrl (HCK): 100%
- % Ctrl (EGFR(L858R, T790M)): 62%
- % Ctrl (FER): 100%
- % Ctrl (EPHB6): 93%
- % Ctrl (ITK): 80%
- % Ctrl [6]: 30%
- % Ctrl (KIT): 100%
- % Ctrl (CTK): 93%
- % Ctrl (EPHA6): 100%
- % Ctrl [7]: 35%

SMILES: Cc1cc2c([nH]1)/C=C1\C(=O)Nc3c(Cl)cc(cc31)-c1cn(C)nc1COC[C@@H](C)NC2=O [Cpd. 3, [3a(4)Z,10R]-20-chloro-6,10,15-trimethyl-10,11,13,15-tetrahydro-2H-1,17-(ethanediylidene)pyrazolo[4,3-m]dipyrrolo[3,2-f:3′,4′-i][1,4]oxazacyclopentadecine-3,8(5H,9H)-dione]
- % Ctrl [1]: 90%
- % Ctrl (ABL1-phosphorylated): 96%
- % Ctrl (TRKC): 100%
- % Ctrl (DDR2): 100%
- % Ctrl [2]: 100%
- % Ctrl (MET): 100%
- % Ctrl [3]: 0%
- Kd [3]: 0.003 µM
- % Ctrl (ALK(C1156Y)): 89%
- % Ctrl (EPHB4): 97%
- % Ctrl (ALK): 100%
- % Ctrl (FLT3(D835V)): 100%
- % Ctrl (RET(M918T)): 100%
- % Ctrl (EGFR(L858R)): 96%
- % Ctrl (EPHA2): 93%
- % Ctrl (BMX): 91%
- % Ctrl (KIT(V559D, T670I)): 100%
- % Ctrl [4]: 93%
- Kd [4]: > 10 µM
- % Ctrl (LTK): 100%
- % Ctrl (FLT3(K663Q)): 100%
- % Ctrl (EPHB3): 93%
- % Ctrl (KIT(L576P)): 100%
- % Ctrl (EPHA4): 92%
- % Ctrl (MUSK): 98%
- % Ctrl [5]: 90%
- % Ctrl (BRK): 95%
- % Ctrl (ALK(L1196M)): 94%
- % Ctrl (MET(M1250T)): 100%
- % Ctrl (FLT3): 57%
- % Ctrl (AXL): 86%
- % Ctrl (HCK): 100%
- % Ctrl (EGFR(L858R, T790M)): 72%
- % Ctrl (FER): 73%
- % Ctrl (EPHB6): 86%
- % Ctrl (ITK): 100%
- % Ctrl [6]: 3.1%
- Kd [6]: 0.12 µM
- % Ctrl (KIT): 100%
- % Ctrl (CTK): 80%
- % Ctrl (EPHA6): 93%
- % Ctrl [7]: 100%

SMILES: C[C@@H]1COCc2nn(C)cc2-c2cc(Cl)c3c(c2)/C(=C/c2[nH]ccc2C(=O)N1)C(=O)N3 [Cpd. 4, [3a(4)Z,10R]-20-chloro-10,15-dimethyl-10,11,13,15-tetrahydro-2H-1,17-(ethanediylidene)pyrazolo[4,3-m]dipyrrolo[3,2-f:3′,4′-i][1,4]oxazacyclopentadecine-3,8(5H,9H)-dione]
- % Ctrl [1]: 90%
- % Ctrl (ABL1-phosphorylated): 90%
- % Ctrl (TRKC): 100%
- % Ctrl (DDR2): 79%
- % Ctrl [2]: 95%
- % Ctrl (MET): 98%
- % Ctrl [3]: 0.2%
- Kd [3]: 0.0019 µM
- % Ctrl (ALK(C1156Y)): 100%
- % Ctrl (EPHB4): 98%
- % Ctrl (ALK): 100%
- % Ctrl (FLT3(D835V)): 75%
- % Ctrl (RET(M918T)): 98%
- % Ctrl (EGFR(L858R)): 95%
- % Ctrl (EPHA2): 96%
- % Ctrl (BMX): 93%
- % Ctrl (KIT(V559D, T670I)): 94%
- % Ctrl [4]: 57%
- Kd [4]: 1.8 µM
- % Ctrl (LTK): 100%
- % Ctrl (FLT3(K663Q)): 90%
- % Ctrl (EPHB3): 93%
- % Ctrl (KIT(L576P)): 100%
- % Ctrl (EPHA4): 92%
- % Ctrl (MUSK): 98%
- % Ctrl [5]: 75%
- % Ctrl (BRK): 83%
- % Ctrl (ALK(L1196M)): 94%
- % Ctrl (MET(M1250T)): 100%
- % Ctrl (FLT3): 100%
- % Ctrl (AXL): 67%
- % Ctrl (HCK): 100%
- % Ctrl (EGFR(L858R, T790M)): 77%
- % Ctrl (FER): 68%
- % Ctrl (EPHB6): 86%
- % Ctrl (ITK): 99%
- % Ctrl [6]: 0.25%
- Kd [6]: 0.029 µM
- % Ctrl (KIT): 100%
- % Ctrl (CTK): 76%
- % Ctrl (EPHA6): 97%
- % Ctrl [7]: 82%
